Experiment in all cases: Antibacterial activity in vitro, MIC by broth dilution
Holding throughout (assay type): cell-based

One test concerns S. aureus MRSA5 Tc^r. Also noted: unit not given here. The conditions noted are these: S. aureus MRSA5, tetracycline resistant, 18 hrs. As for the experimental part:
(§1) Various compounds made in accordance with the invention were evaluated for anti-bacterial activity in vitro as follows. The minimum inhibitory concentration, the lowest concentration of drug that inhibits bacterial growth at 18 hrs at their appropriate temperature, is determined by the broth dilution method using L-broth or Mueller-Hinton broth. The Mueller-Hinton broth was cation-adjusted accordingly and all bacteriological methods were performed as was described by Waitz, J. A., National Commission for Clinical Laboratory Standards Document M7-A2, vol. 10, no. 8, pp. 13-20, 2nd edition, Villanova, Pa. (1990). The organisms tested represent gram-positive and gram-negative bacterial species that are susceptible to tetracyclines or are resistant to tetracyclines due to the ability to efflux tetracyclines or which confer resistance by ribosomal protection mechanisms. The clinical strains used are either susceptible to tetracyclines or are resistant to them by either drug efflux or ribosomal protection.

In the next test the test system is E. hirae ATCC9790 Tc^s. Also noted: unit not given here. The conditions noted are these: E. hirae ATCC9790, tetracycline susceptible, 18 hrs. As for the experimental part:
as §1

A further test deals with E. coli ML308-225 Tc^s. Also noted: unit not given here. The conditions noted are these: E. coli ML308-225, tetracycline susceptible, 18 hrs. As to the method:
as §1

Test [1] has as its system S. warnerii Tc^r ATCC12715. Also noted: unit not given here. The conditions noted are these: S. warnerii ATCC12715, tetracycline resistant, 18 hrs. As to the method:
as §1

For a further test, the system named is E. coli D1-209 Tc^r. Also noted: unit not given here. The conditions noted are these: E. coli D1-209, tetracycline resistant, 18 hrs. As for the experimental part: as §1
A further test concerns E. coli D1-299 Tc^r. Also noted: unit not given here. The conditions noted are these: E. coli D1-299, tetracycline resistant, 18 hrs. As for the experimental part: as §1
A further test concerns E. coli D31m4 Tc^s. The conditions noted are these: E. coli D31m4, tetracycline susceptible, 18 hrs. As to the method: as §1
In test [2] the test system is E. hirae 9790 with pMV158 Tc^r. The conditions noted are these: E. hirae 9790 with pMV158, tetracycline resistant, 18 hrs. As for the experimental part: as §1
In test [3] the test system is E. coli D 31m4 pHCM1 Tc^r. The conditions noted are these: E. coli D 31m4 pHCM1, tetracycline resistant, 18 hrs. As for the experimental part: as §1
A further test has as its system S. aureus RN450 Tc^s. The conditions noted are these: S. aureus RN450, tetracycline susceptible, 18 hrs. As for the experimental part: as §1
For test [4], the system named is E. hirae 9790 with pAM211 Tc^r. The conditions noted are these: E. hirae 9790 with pAM211, tetracycline resistant, 18 hrs. As to the method:
as §1

For a further test, the system named is S. aureus RN4250 Tc^r. The conditions noted are these: S. aureus RN4250, tetracycline resistant, 18 hrs. As to the method:
as §1

Each structure is given as a SMILES string.

With `CN(C)[C@@H]1C(O)=C(C(N)=O)C(=O)C2(O)C(O)=C3C(=O)c4c(O)cccc4C(=Cc4cccc(C(=O)O)c4)C3C(O)C12` (stereo partly drawn) [J, [4S-(4a,12aα)]-13-(3′-carboxyphenyl)-4-(dimethylamino)-1,4,4a,5,5a,6,11,12a-octahydro-3,5,10,12,12a-pentahydroxy-6-methylene-1,11-dioxo-2-naphthacenecarboxamide], the “Antibacterial Activity (minimum inhibitory concentration)” value in the test with S. aureus MRSA5 Tc^r is above 50; in the test on E. hirae ATCC9790 Tc^s, 3.12; with E. coli ML308-225 Tc^s, above 50; in test [1], above 50; with E. coli D1-209 Tc^r it was above 50; in the test with E. coli D1-299 Tc^r, above 50. Besides, the “Antibacterial Activity (minimum inhibitory concentration)” value in the test on E. coli D31m4 Tc^s is given as above 50; in [2] it was above 50; in [3], above 50; in the test with S. aureus RN450 Tc^s, 0.39; in test [4], above 50; with S. aureus RN4250 Tc^r it was above 50.

Regarding `CN(C)C1C(O)=C(C(N)=O)C(=O)C2(O)C(O)=C3C(=O)c4c(O)ccc(-c5ccc(Cl)cc5)c4CC3CC12` (stereo not drawn) [G], the “Antibacterial Activity (minimum inhibitory concentration)” value in the test on S. aureus MRSA5 Tc^r is 0.195; with E. hirae ATCC9790 Tc^s, “≦0.098”; with E. coli ML308-225 Tc^s, above 50; in test [1], “≦0.098”; in the test on E. coli D1-209 Tc^r it was above 50; in the test on E. coli D1-299 Tc^r it was above 50. For the same compound, the “Antibacterial Activity (minimum inhibitory concentration)” value is reported as 0.78 in the test on E. coli D31m4 Tc^s; “≦0.098” in test [2]; 0.78 in test [3]; “≦0.098” with S. aureus RN450 Tc^s; “≦0.098” in test [4]; “≦0.098” in the test with S. aureus RN4250 Tc^r.

The values are drawn from patent publication US8106225B2, “Methods of preparing substituted tetracyclines with transition metal-based chemistries” (Trustees of Tufts College, priority 1999, dated 2012).
